Experimental data reported in patent publication US6762181B1, “Aminomethylpyrrolidine derivatives having aromatic substituents” (Daiichi Pharmaceutical Co., Ltd., priority 1999, dated 2004).
≈ marks a conversion by molar mass, not a printed value. Like-named read-outs stand apart in the source and are kept apart here.

Columns and labels:
Assay in all cases: Antibacterial activity (MIC), Japan Society of Chemotherapy standard method
Format in all cases: cell-based
[1] = test system: S. epidermidis 56500
Protocol: (§1) Antibacterial activities of the compounds of the invention were measured in accordance with the standard method specified by the Japan Society of Chemotherapy, with the results shown in the following table as MIC values (μg/ml). In this connection, MIC values of levofloxacin (LVFX), ciprofloxacin (CPFX) and 5-amino-7-[3-(R)-[1-(S)-aminoethyl]pyrrolidin-1-yl]-6-fluoro-1-[2-(S)-fluoro-1-(R)-cyclopropyl]-8-methyl-1,4-dihydro-4-oxoquinoline-3-carboxylic acid (control drug 1) described in WO 9623782 are also shown for the sake of comparison with the MIC values of the compounds of the invention.

[2] = test system: Str. pyrogenes G-36
Protocol: as §1

[3] = test system: Str. pneumoniae J24
Protocol: as §1

[4] = test system: S. aureus FDA 209P
Protocol: as §1

[5] = test system: Ps. aeruginosa 32104
Protocol: as §1

[6] = test system: K. pneumoniae TYPE 1
Protocol: as §1

[7] = test system: E. faecalis ATCC 19433
Protocol: as §1

[8] = test system: S. flexneri 2A 5503
Protocol: as §1

[9] = test system: Pr. Vulgaris O8601
Protocol: as §1

[10] = test system: X. maltophilia IID 1275
Protocol: as §1

[11] = test system: Ps. aeruginosa 32121
Protocol: as §1

[12] = test system: S. aureus 870307
Protocol: as §1

[13] = test system: Ser. marcescens 10100
Protocol: as §1

[14] = test system: E. coli NIHJ
Protocol: as §1

[15] = Staphylococcus epidermidis, read-out: MIC
[16] = Streptococcus pneumoniae, J24, Str. pneumoniae J24, read-out: MIC
[17] = Staphylococcus aureus, FDA209P, read-out: MIC
[18] = Pseudomonas aeruginosa, 32104, Ps. aeruginosa 32104, read-out: MIC
[19] = Klebsiella pneumoniae, TYPE1, K. pneumoniae TYPE 1, read-out: MIC
[20] = Enterococcus faecalis, ATCC19433, E. faecalis ATCC 19433, read-out: MIC
[21] = Shigella flexneri, 2A5503, S. flexneri 2A 5503, read-out: MIC
[22] = Proteus vulgaris, read-out: MIC
[23] = Stenotrophomonas maltophilia, IID1275, X. maltophilia IID 1275, read-out: MIC
[24] = Pseudomonas aeruginosa, 32121, Ps. aeruginosa 32121, read-out: MIC
[25] = Staphylococcus aureus, 870307, S. aureus 870307, read-out: MIC
[26] = Serratia marcescens, 10100, Ser. marcescens 10100, read-out: MIC
[27] = Escherichia coli, read-out: MIC

SMILES | MIC [2] | MIC ([6]; K. pneumoniae TYPE 1) [µg/mL] | MIC ([7]; E. faecalis ATCC 19433) [µg/mL] | MIC [9] [µg/mL] | MIC ([10]; X. maltophilia IID 1275) [µg/mL] | MIC ([11]; Ps. aeruginosa 32121) [µg/mL] | MIC [1, 15] [µg/mL] | MIC ([2]; read-out: MIC) [µg/mL] | MIC [3, 16] [µg/mL] | MIC [4, 17] [µg/mL] | MIC [5, 18] [µg/mL] | MIC [6, 19] [µg/mL] | MIC [7, 20] [µg/mL] | MIC [8, 21] [µg/mL] | MIC [9, 22] [µg/mL] | MIC [10, 23] [µg/mL] | MIC [11, 24] [µg/mL] | MIC [12, 25] [µg/mL] | MIC [13, 26] [µg/mL] | MIC [14, 27] [µg/mL] | further results
COc1ccccc1C(N)[C@@H]1CCN(c2c(F)c(N)c3c(=O)c(C(=O)O)cn([C@@H]4C[C@@H]4F)c3c2F)C1 (stereo partly drawn) [Example 8, 5-Amino-7-[3-(R)-(1-Amino-1-(2-Methoxy) Phenylmethyl)-1-Pyrrolidinyl]-6,8-Difluoro-1-[2-(S)-Fluoro-1-(R)-Cyclopropyl]-1,4-Dihydro-4-Oxoquinoline-3-Carboxylic Acid] | ≦0.003 μg/ml | 0.05 (≈ 0.0995 µM) | 0.025 (≈ 0.0498 µM) | 0.2 (≈ 0.398 µM) | 0.2 (≈ 0.398 µM) | 0.1 (≈ 0.199 µM) |  |  |  |  |  |  |  |  |  |  |  |  |  |  | MIC [1]: ≦0.003 μg/ml; MIC ([3]; Str. pneumoniae J24): ≦0.003 μg/ml; MIC [4]: ≦0.003 μg/ml; MIC ([5]; Ps. aeruginosa 32104): 0.2 µg/mL (≈ 0.398 µM); MIC ([8]; S. flexneri 2A 5503): 0.006 µg/mL (≈ 0.0119 µM); MIC ([12]; S. aureus 870307): 0.013 µg/mL (≈ 0.0259 µM); MIC ([13]; Ser. marcescens 10100): 0.2 µg/mL (≈ 0.398 µM); MIC [14]: ≦0.003 μg/ml
Cc1c(N2CC[C@@H]([C@H](C)N)C2)c(F)c(N)c2c(=O)c(C(=O)O)cn([C@@H]3C[C@@H]3F)c12 [Control drug 1, 5-amino-7-[3-(R)-[1-(S)-aminoethyl]pyrrolidin-1-yl]-6-fluoro-1-[2-(S)-fluoro-1-(R)-cyclopropyl]-8-methyl-1,4-dihydro-4-oxoquinoline-3-carboxylic acid, reference compound] |  |  |  |  |  |  | ≤ 0.003 | ≤ 0.003 | ≤ 0.003 | ≤ 0.003 | 0.1 (≈ 0.246 µM) | 0.05 (≈ 0.123 µM) | 0.025 (≈ 0.0615 µM) | 0.006 (≈ 0.0148 µM) | 0.013 (≈ 0.032 µM) | 0.2 (≈ 0.492 µM) | 0.05 (≈ 0.123 µM) | 0.025 (≈ 0.0615 µM) | 0.1 (≈ 0.246 µM) | 0.006 (≈ 0.0148 µM) | 
Cc1c(N2CC[C@@H](C(N)c3cccnc3)C2)c(F)c(N)c2c(=O)c(C(=O)O)cn([C@@H]3C[C@@H]3F)c12 (stereo partly drawn) [Example 20, 5-Amino-7-(3-(R)-[1-amino-1-(3-pyridyl)methyl]-1-pyrrolidinyl)-6-fluoro-1-[(1R,2S)-2-fluorocyclopropyl]-1,4-dihydro-8-methyl-4-oxoquinoline-3-carboxylic acid] |  |  |  |  |  |  | ≤ 0.003 | ≤ 0.003 | ≤ 0.003 | ≤ 0.003 | 0.2 (≈ 0.426 µM) | 0.05 (≈ 0.106 µM) | 0.025 (≈ 0.0532 µM) | 0.006 (≈ 0.0128 µM) | 0.025 (≈ 0.0532 µM) | 0.2 (≈ 0.426 µM) | 0.05 (≈ 0.106 µM) | 0.05 (≈ 0.106 µM) | 0.1 (≈ 0.213 µM) | 0.006 (≈ 0.0128 µM) | 
Nc1c(F)c(N2CC[C@@H](C(N)c3ccco3)C2)c(F)c2c1c(=O)c(C(=O)O)cn2[C@@H]1C[C@@H]1F (stereo partly drawn) [Example 12, 5-Amino-7-{3-(R)-[1-amino-1-(2-furyl)methyl]-1-pyrrolidinyl}-6,8-difluoro-1-[2-(S)-fluoro-1-(R)-cyclopropyl]-1,4-dihydro-4-oxoquinoline-3-carboxylic acid] | ≦0.003 μg/ml | 0.025 (≈ 0.0541 µM) | 0.006 (≈ 0.013 µM) | 0.013 (≈ 0.0281 µM) | 0.05 (≈ 0.108 µM) | 0.05 (≈ 0.108 µM) |  |  |  |  |  |  |  | ≤ 0.003 |  |  |  |  |  | ≤ 0.003 | MIC [1]: ≦0.003 μg/ml; MIC ([3]; Str. pneumoniae J24): ≦0.003 μg/ml; MIC [4]: ≦0.003 μg/ml; MIC ([5]; Ps. aeruginosa 32104): 0.1 µg/mL (≈ 0.216 µM); MIC ([12]; S. aureus 870307): ≦0.003 μg/ml; MIC ([13]; Ser. marcescens 10100): 0.025 µg/mL (≈ 0.0541 µM)
Nc1c(F)c(N2CC[C@@H](C(N)c3ccccc3)C2)c(F)c2c1c(=O)c(C(=O)O)cn2[C@@H]1C[C@@H]1F (single isomer, unassigned) [Example 1] | 0.013 µg/mL (≈ 0.0275 µM) | 0.05 (≈ 0.106 µM) | 0.05 (≈ 0.106 µM) | 0.1 (≈ 0.212 µM) | 0.1 (≈ 0.212 µM) | 0.1 (≈ 0.212 µM) | ≤ 0.003 |  | 0.006 (≈ 0.0127 µM) | ≤ 0.003 | 0.2 (≈ 0.423 µM) |  |  | 0.006 (≈ 0.0127 µM) |  |  |  |  | 0.1 (≈ 0.212 µM) | ≤ 0.003 | MIC ([12]; S. aureus 870307): 0.025 µg/mL (≈ 0.0529 µM)
COc1c(N2CC[C@@H](C(N)c3ccccc3)C2)c(F)cc2c(=O)c(C(=O)O)cn([C@@H]3C[C@@H]3F)c12 (stereo partly drawn) [Example 3, 7-[3-(R)-(1-Amino-1-Phenylmethyl)-1-Pyrrolidinyl]-6-Fluoro-1-[2-(S)-Fluoro-1-(R)-Cyclopropyl]-1,4-Dihydro-8-Methoxy-4-Oxoquinoline-3-Carboxylic Acid] |  |  |  |  |  |  | ≤ 0.003 | ≤ 0.003 | ≤ 0.003 | ≤ 0.003 | 0.1 (≈ 0.213 µM) | 0.025 (≈ 0.0532 µM) | 0.013 (≈ 0.0277 µM) | ≤ 0.003 | 0.025 (≈ 0.0532 µM) | 0.025 (≈ 0.0532 µM) | 0.05 (≈ 0.106 µM) | ≤ 0.003 | 0.05 (≈ 0.106 µM) | ≤ 0.003 | 
C[C@H]1COc2c(N3CCN(C)CC3)c(F)cc3c(=O)c(C(=O)O)cn1c23 [LVFX, levofloxacin, reference compound] |  |  |  |  |  |  | 0.39 (≈ 1.08 µM) | 0.2 (≈ 0.553 µM) | 0.78 (≈ 2.16 µM) | 0.2 (≈ 0.553 µM) | 0.2 (≈ 0.553 µM) | 0.1 (≈ 0.277 µM) | 0.78 (≈ 2.16 µM) | 0.025 (≈ 0.0692 µM) | 0.13 (≈ 0.36 µM) | 0.39 (≈ 1.08 µM) | 0.1 (≈ 0.277 µM) | > 6.25 | 0.1 (≈ 0.277 µM) | 0.013 (≈ 0.036 µM) | 
